Where two headings read alike, the source gives them in different places.
Legend:
HIV-1 (IIIB) = assay: Antiviral (HIV) assay in MT-4 cells; type: cell-based; details: read-out: MT4 HIV EC50
Method: Example 9: Antiviral (HIV) Assay in MT-4 Cells
Compounds were tested in a high-throughput 384-well assay format for their ability to inhibit the replication of HIV-1 (IIIB) in MT-4 cells. Compounds were serially diluted (1:3) in DMSO on 384-well polypropylene plates and further diluted 200-fold into complete RPMI media (10% FBS, 1% P/S) using the Biotek Micro Flow and Labcyte ECHO acoustic dispenser. Each plate contained up to 8 test compounds, with negative (no drug) and positive (5 μM AZT) controls. MT-4 cells were pre-treated with 10 μL of either RPMI (mock-infected) or a fresh 1:250 dilution of HIV-1 IIIB concentrated virus stock. Infected and uninfected MT-4 cells were further diluted in complete RPMI media and added to each plate using a Micro Flow dispenser. After 5 days incubation in a humidified and temperature-controlled incubator (37° C.), Cell Titer Glo (Promega) was added to the assay plates and chemiluminescence read using an Envision plate-reader. EC50 values were defined as the compound concentration that causes a 50% decrease in luminescence signal and were calculated using a sigmoidal dose-response model to generate curve fits and are shown in Table 1.

[1] = Cytotoxicity assay in MT-4 cells; type: cell-based; details: human, uninfected MT-4 cells, read-out: MT4 CC50
Method: Example 10: Cytotoxicity Assay in MT-4 Cells
Assays were performed as described in Example 9 except uninfected MT-4 cells were added to each well containing test compound. In addition, 10 μM puromycin was added to the last column of each assay plate to assess a base level of cytotoxicity.

[2] = Rhesus pharmacokinetic study, intravenous compound 7 (plasma and PBMC); details: for Intracellular concentration in PBMC: LOQ 2.5 μM compound 7, 0.63 μM triphosphate
Method: Male Indian Origin Rhesus Monkeys were used for the pharmacokinetic studies. Studies were conducted under a protocol approved by IACUC. […] The intravenous dose was administered as an approximately 30-minute infusion, and after dose administration the dose apparatus was flushed with approximately 1 mL saline before removal from the animal. Food was returned 4 hours after dosing. […] The K2EDTA tubes were kept chilled at approximately 5° C. until centrifugation (4° C., 5 minutes, 2000×g) to collect plasma. Centrifugation began within 1 hour of collection. Plasma samples were harvested, placed in micronic tubes, and maintained on dry ice prior to storage at −70° C. until analysis by LC-MS/MS. […] The sodium citrate tubes were then gently inverted 3-4 times and stored upright at ambient temperature until centrifugation to collect PBMCs. Centrifugation began as soon as possible following collection, within 6 hours after collection. The PBMCs were separated by centrifugation (30 minutes at 1500×g-1800×g, 18-20° C.), washed once with ice cold 0.9% NaCl and treated with red blood cell lysis buffer (3.5 g ammonium chloride and 0.036 g ammonium carbonate in 500 mL ultrapure water, prepared before first blood collection) for 10 minutes at ambient temperature. Subsequently the cells were washed twice with ice cold 0.9% NaCl, the cell pellet resuspended in ice cold RIPA buffer (fortified with Pierce protease ad phosphatase inhibitor tablet), snap frozen in liquid nitrogen, and maintained at −70° C. until analysis by LC-MS/MS.

[3] = Rhesus pharmacokinetic study, oral compound 7 (plasma and PBMC); details: for Intracellular concentration in PBMC: LOQ 0.16 μM compound 7, 0.04 μM triphosphate
Method: The oral dose was administered via oral gavage, and after dose administration the dose apparatus was flushed with approximately 10 mL water before removal from the animal. Food was returned 4 hours after dosing. […] The K2EDTA tubes were kept chilled at approximately 5° C. until centrifugation (4° C., 5 minutes, 2000×g) to collect plasma. Centrifugation began within 1 hour of collection. Plasma samples were harvested, placed in micronic tubes, and maintained on dry ice prior to storage at −70° C. until analysis by LC-MS/MS. […] The sodium citrate tubes were then gently inverted 3-4 times and stored upright at ambient temperature until centrifugation to collect PBMCs. Centrifugation began as soon as possible following collection, within 6 hours after collection. The PBMCs were separated by centrifugation (30 minutes at 1500×g-1800×g, 18-20° C.), washed once with ice cold 0.9% NaCl and treated with red blood cell lysis buffer (3.5 g ammonium chloride and 0.036 g ammonium carbonate in 500 mL ultrapure water, prepared before first blood collection) for 10 minutes at ambient temperature. Subsequently, the cells were washed twice with ice cold 0.9% NaCl and the cell pellet maintained at −70° C. until analysis by LC-MS/MS.

[4] = Human immunodeficiency virus 1, MT4, 120 h, HIV-1 IIIB in MT-4 cells, 5 days, Cell Titer Glo
[5] = Human immunodeficiency virus 1, IIIB, MT4, 120 h
[6] = male, Indian Origin, rhesus monkey, plasma, iv, 1 mg/kg
[7] = male, Indian Origin, rhesus monkey, peripheral blood mononuclear cells (PBMC), po, 7.5 mg/kg
[8] = male, Indian Origin, rhesus monkey, plasma, po, 7.5 mg/kg

Compound: C#C[C@]1(CO)S[C@@H](n2cnc3c(N)nc(N)nc32)C[C@@H]1O [Compound 1, (2R,3S,5R)-5-(2,6-Diamino-9H-purin-9-yl)-2-ethynyl-2-(hydroxymethyl)tetrahydrothiophen-3-ol]
- EC50 (HIV-1 (IIIB); [4]): 0.683 µM
- CC50 at 5 days [1]: > 25 µM

Compound: C#C[C@]1(CO)S[C@@H](n2cnc3c(NC4CC4)nc(N)nc32)C[C@@H]1O [Compound 2, (2R,3S,5R)-5-(2-Amino-6-(cyclopropylamino)-9H-purin-9-yl)-2-ethynyl-2-(hydroxymethyl)tetrahydrothiophen-3-ol]
- EC50 (HIV-1 (IIIB); [4]): 4.52 µM
- CC50 at 5 days [1]: > 25 µM

Compound: C#C[C@]1(CO)S[C@@H](n2cnc3nc(N)nc(NC4CC4)c32)C[C@@H]1O [Compound 3, (2R,3S,5R)-5-(2-Amino-6-(cyclopropylamino)-7H-purin-7-yl)-2-ethynyl-2-(hydroxymethyl)tetrahydrothiophen-3-ol]
- EC50 (HIV-1 (IIIB); [4]): > 25 µM
- CC50 at 5 days [1]: > 25 µM

Compound: C#C[C@]1(CO)S[C@@H](n2cnc3c(OCC)nc(N)nc32)C[C@@H]1O [Compound 4, (2R,3S,5R)-5-(2-Amino-6-ethoxy-9H-purin-9-yl)-2-ethynyl-2-(hydroxymethyl)tetrahydrothiophen-3-ol]
- EC50 (HIV-1 (IIIB); [4]): 0.477 µM
- CC50 at 5 days [1]: 23 µM

Compound: C#C[C@]1(CO)S[C@@H](n2cnc3nc(N)nc(OCC)c32)C[C@@H]1O [Compound 5, (2R,3S,5R)-5-(2-Amino-6-ethoxy-7H-purin-7-yl)-2-ethynyl-2-(hydroxymethyl)tetrahydrothiophen-3-ol]
- EC50 (HIV-1 (IIIB); [4]): > 5 µM
- CC50 at 5 days [1]: > 25 µM

Compound: C#C[C@]1(CO[P@@](=O)(N[C@@H](C)C(=O)OCC(CC)CC)Oc2ccccc2)S[C@@H](n2cnc3c(N)nc(N)nc32)C[C@@H]1O [Compound 6, 2-Ethylbutyl ((S)-(((2R,3S,5R)-5-(2,6-diamino-9H-purin-9-yl)-2-ethynyl-3-hydroxytetrahydrothiophen-2-yl)methoxy)(phenoxy)phosphoryl)-L-alaninate]
- EC50 (HIV-1 (IIIB); [5]): 0.026 µM
- CC50 at 5 days [1]: > 25 µM

Compound: C#C[C@]1(CO)S[C@@H](n2cc(F)c(N)nc2=O)C[C@@H]1O [Compound 7, 4-Amino-1-((2R,4S,5R)-5-ethynyl-4-hydroxy-5-(hydroxymethyl)tetrahydrothiophen-2-yl)-5-fluoropyrimidin-2(1H)-one]
- EC50 (HIV-1 (IIIB); [4]): 0.018 µM
- CC50 at 5 days [1]: 24 µM
- Intracellular concentration in PBMC ([2]; 12 hr after intravenous 1 mg/kg compound 7): BLQ
- Intracellular concentration in PBMC ([2]; 24 hr after intravenous 1 mg/kg compound 7): BLQ
- Intracellular concentration in PBMC ([2]; 48 hr after intravenous 1 mg/kg compound 7): BLQ
- Intracellular concentration in PBMC ([2]; 72 hr after intravenous 1 mg/kg compound 7): BLQ
- Intracellular concentration in PBMC ([2]; 144 hr after intravenous 1 mg/kg compound 7): BLQ
- Intracellular concentration in PBMC ([2]; 168 hr after intravenous 1 mg/kg compound 7): BLQ
- half-life ([2]; male, Indian Origin, rhesus monkey, in vivo, iv, 1 mg/kg): 50 ± 26.4 h
- AUC(0-t) [2, 6]: 14.6 ± 3.01 µM·h
- Cmax [2, 6]: 3770 ± 310 nM
- Intracellular concentration in PBMC ([3]; 48 hr after oral 7.5 mg/kg compound 7): BLQ
- Intracellular concentration in PBMC ([3]; 72 hr after oral 7.5 mg/kg compound 7): BLQ
- Intracellular concentration in PBMC ([3]; 120 hr after oral 7.5 mg/kg compound 7): BLQ
- Intracellular concentration in PBMC ([3]; 168 hr after oral 7.5 mg/kg compound 7): BLQ
- half-life ([3]; male, Indian Origin, rhesus monkey, in vivo, po, 7.5 mg/kg): 25.1 ± 16.3 h
- concentration at 12 h [3, 7]: 560 ± 30 nM
- concentration at 24 h [3, 7]: 370 ± 200 nM
- AUC(0-t) [3, 8]: 20.1 ± 14.9 µM·h
- Cmax [3, 8]: 1500 ± 350 nM

Compound: C#C[C@]1(CO[P@@](=O)(N[C@@H](C)C(=O)OCC(CC)CC)Oc2ccccc2)S[C@@H](n2cc(F)c(N)nc2=O)C[C@@H]1O [Compound 9, 2-Ethylbutyl ((S)-(((2R,3S,5R)-5-(4-amino-5-fluoro-2-oxopyrimidin-1(2H)-yl)-2-ethynyl-3-hydroxytetrahydrothiophen-2-yl)methoxy)(phenoxy)phosphoryl)-L-alaninate]
- EC50 (HIV-1 (IIIB); [5]): 0.145 µM
- CC50 at 5 days [1]: 23.2 µM

— patent publication US20240226130A1, “4'-THIONUCLEOSIDE ANALOGUES AND THEIR PHARMACEUTICAL USE” (Gilead Sciences, Inc., priority 2022, published 2024)
